Values of other authors in patent US8003118B2 (priority 2005, dated 2011).

CO[C@H]1/C=C/O[C@@]2(C)Oc3c(C)c(O)c4c(O)c(c5c(nc6cc(C)ccn65)c4c3C2=O)NC(=O)/C(C)=C\C=C\[C@H](C)[C@H](O)[C@@H](C)[C@@H](O)[C@@H](C)[C@H](OC(C)=O)[C@@H]1C [rifaximin, (2S,16Z,18E,20S,21S,22R,23R,24R,25S,26S,27S,28E)-5,6,21,23,25-pentahydroxy-27-methoxy-2,4,11,16,20,22,24,26-octamethyl-2,7-(epoxypentadeca-[1,11,13]trienimino)benzofuro[4,5-e]pyrido[1,2-α]-benzimidazole-1,15(2H)-dione,25-acetate]
solubility in water: practically insoluble
